# Source: patent EP1985629A1, “Pro-apoptotic molecules and therapeutic uses thereof” (UNIVERSITA DEGLI STUDI DI GENOVA, priority 2007, dated 2008)
# Where a SMILES comes first, the peptide text is derived from it. [ ]: non-standard residue; d: D form. Aib = CC(C)(N)C(=O)O
# Experiments:
# Namalwa cells = assay: Morphologic analysis of apoptosis (PI, confocal microscopy); type: cell-based, human; settings: PI labeled Namalwa cells; and 48 h (072RB), 48 h (Int)
# Protocol: After extensive washes, samples were incubated with PI (50µg/ml in PBS) and 100 units/ml Rnase type A and 10 mM EDTA (to inactivate endogenous nucleases) for 15 min at room temperature. After three washes, cells were put on a micro-slide, covered with a coverslip and analysed with an IX81 microscope equipped with He-Neon […] laser, suitable for PI fluorescence excitation (FV500, Olympus BioSystem). 10-15 fields were analysed with 40x oil/1.35NA or 60x oil/1.40NA objectives and images acquired with the Flowview 4.2b computer program.
# U937, Jurkat, Namalwa = assay: Cell growth, cell counts (trypan blue exclusion), three cell lines; type: cell-based, human; settings: 10 µM, twice every 48 h, four days
# Protocol: (§1) • Figure 1 Fluorescence Anisotropy Assay. Average anisotropy values: (open square) binding assay for increasing concentrations of Bcl-XL at a fixed concentration of fluorescent Bak-BH3 peptide. […] The error bars represent standard deviations observed from triplicate experiments. • Figure 2 072RB: cell growth effects. Panel A: Cell growth of U937 cell line treated for four days every 24 h at a 1 µM 072RB concentration and every 48 h at 3, 5, 10 and 30 µM 072RB concentrations. U937 controls at day 4, cell number: 350,000 ±50,000. Number of cells seeded at day 0: 20,000. Arrows indicate treatment time. […] All cells were counted in a Burker chamber and values are expressed as percentage of the untreated control cell number. Only living cells identified by trypan blue exclusion staining were counted. […] Flow cytometry measurements of DNA content (evaluated by propidium iodide (PI) fluorescence intensity) and physical cell side-scattering (evaluated by SSC) in U937 cells treated with Int and 072RB at 10 µM, twice each 48h. […] Three main cell populations can be observed in the bivariate PI/SSC plots, one with low SSC and normal DNA content (that accounts for "live" cells in culture), another with high SSC and normal DNA content (cells undergoing "early stage of apoptosis") and another one with lower PI fluorescence (cells at "late stage of apoptosis" and debris). […]
# [1] = test system: U937 and Jurkat cell lines; assay: Detection of mitochondrial permeability transition (DiOC6 fluorescence); type: cell-based, human; settings: two cell lines, 4 days, 5 and 10 µM, two independent experiments
# [2] = Circular dichroism, relative content of secondary structure elements; type: physicochemical; design: key to α-Helix / β-Strands / β-Turns / Random: relative content as fraction, from CDSSTR deconvolution; settings: CDSSTR deconvolution
# Protocol: Circular dichroism (CD) spectra in the far-UV region (190-260 nm) were collected on a Jasco J-715 spectropolarimeter using a 0.1 cm path-length cuvette. Temperature was kept at 25°C by a Peltier device. Peptide concentration was determined from the absorption of the aromatic residues at 280 nm.
# Peptides solutions: Bim-BH3Y and Bim-BH3YA2Aib were suspended in water and potassium hydroxide was added up to complete solubilization. 072RB was dissolved in water. Concentration of stock solutions was about 0.1 mg/ml. For circular dichroism measurements, stock solutions were diluted in 10 mM potassium phosphate buffer, pH 7.
# The relative content of secondary structure elements was calculated with the deconvolution program CDSSTR [31] (Table 2). […] 072RB has the highest helical content in the set examined here (0.30 α-helix percent).
# U937 cell line = assay: Cell growth, cell counts (trypan blue exclusion); type: cell-based, human; settings: U937, 1 µM up to 30 µM, four days
# Protocol: as §1
# [3] = relative content, 10 mM potassium phosphate buffer, pH 7, 25°C
structure (smiles),measurement,setting,value
CC[C@H](C)[C@H](NC(=O)[C@H](CCCNC(=N)N)NC(=O)[C@H](CCCNC(=N)N)NC(=O)[C@H](CC(C)C)NC(=O)[C@H](CCC(=O)O)NC(=O)[C@H](CCC(N)=O)NC(=O)C(C)(C)NC(=O)[C@@H](NC(=O)[C@H](Cc1ccc(O)cc1)NC(=O)[C@@H](NC(=O)[C@H](CCC(=O)O)NC(=O)[C@@H]1CCCN1C(=O)[C@H](CCCNC(=N)N)NC(=O)[C@H](CCSC)NC(=O)[C@@H](N)CC(=O)O)[C@@H](C)CC)[C@@H](C)CC)C(=O)NCC(=O)N[C@@H](CC(=O)O)C(=O)N[C@@H](C)C(=O)N[C@@H](Cc1ccccc1)C(=O)N[C@@H](CC(N)=O)C(=O)NC(C)(C)C(=O)N[C@@H](Cc1ccc(O)cc1)C(=O)N[C@@H](CCCCN)C(=O)N[C@@H](CCCCN)C(=O)N[C@@H](Cc1c[nH]c2ccccc12)C(=O)N[C@@H](CCCCN)C(=O)N[C@@H](CCSC)C(=O)N[C@@H](CCCNC(=N)N)C(=O)N[C@@H](CCCNC(=N)N)C(=O)N[C@@H](CC(N)=O)C(=O)N1CCC[C@H]1C(=O)N[C@@H](Cc1ccccc1)C(=O)N[C@@H](Cc1c[nH]c2ccccc12)C(=O)N[C@H](C(=O)N[C@@H](CCCCN)C(=O)N[C@H](C(=O)N[C@@H](CCC(N)=O)C(=O)N[C@@H](CCCNC(=N)N)C(N)=O)[C@@H](C)CC)[C@@H](C)CC [Peptide 072RB] (H-DMRPEIYI[Aib]QELRRIGDAFN[Aib]YKKWKMRRNPFWIKIQR-NH2; N-terminus and C-terminus assumed),chromatin condensation and apoptotic body formation,Namalwa cells,exhibited chromatin condensation and apoptotic body formation
same,cell growth compared to control cultures,"U937, Jurkat, Namalwa",progressive decrease of cell growth
same,MPT (reduced DiOC6 fluorescence),[1],clear MPT effects
same,relative content of helices,[2],0.30 α-helix percent
same,Random,[2]; [3],0.42
same,α-Helix,[2]; [3],0.30
same,β-Strands,[2]; [3],0.12
same,β-Turns,[2]; [3],0.15
same,cell growth (cell counts),U937 cell line,dose-dependent inhibition of cell growth
